For 2 compounds, Activity, Flu intensity and viability results are on record in ChEMBL document CHEMBL4330083, “Synthesis and evaluation of isoprenylation-resveratrol dimer derivatives against Alzheimer's disease” (Eur J Med Chem, 2019).

Common to all, as to format: functional
The subject of test [1] is PC-12. Put plainly: Neuroprotection against H2O2-induced oxidative damage in rat PC12 cells assessed as late apoptotic cells at 2.5 uM after 24 hrs in presence of H2O2 by annexin V-FITC/propidium iodide staining based flow cytometric analysis (reference value: 6.2%). (A flow cytometer gives signals particle by particle.)
Test [2] concerns PC-12. Put plainly: Neuroprotection against H2O2-induced oxidative damage in rat PC12 cells assessed as necrotic cells at 2.5 uM after 24 hrs in presence of H2O2 by annexin V-FITC/propidium iodide staining based flow cytometric analysis (reference value: 0.4%).
Test [3] relates to PC-12. Put plainly: Neuroprotection against H2O2-induced oxidative damage in rat PC12 cells assessed as early apoptotic cells at 5 uM after 24 hrs in presence of H2O2 by annexin V-FITC/propidium iodide staining based flow cytometric analysis (reference value: 29.3%).
Test [4] relates to PC-12. Put plainly: Neuroprotection against H2O2-induced oxidative damage in rat PC12 cells assessed as late apoptotic cells at 5 uM after 24 hrs in presence of H2O2 by annexin V-FITC/propidium iodide staining based flow cytometric analysis (reference value: 6.2%).
Test [5] concerns PC-12. Put plainly: Neuroprotection against H2O2-induced oxidative damage in rat PC12 cells assessed as early apoptotic cells at 10 uM after 24 hrs in presence of H2O2 by annexin V-FITC/propidium iodide staining based flow cytometric analysis (reference value: 29.3%).
The test system of test [6] is PC-12. Description: Neuroprotection against H2O2-induced oxidative damage in rat PC12 cells assessed as late apoptotic cells at 10 uM after 24 hrs in presence of H2O2 by annexin V-FITC/propidium iodide staining based flow cytometric analysis (reference value: 6.2%).
Test [7] relates to PC-12. Put plainly: Neuroprotection against H2O2-induced oxidative damage in rat PC12 cells assessed as necrotic cells at 10 uM after 24 hrs in presence of H2O2 by annexin V-FITC/propidium iodide staining based flow cytometric analysis (reference value: 0.4%).
The subject of test [8] is PC-12. Description: Neuroprotection against H2O2-induced oxidative damage in rat PC12 cells assessed as intracellular Ca2+ level by measuring mean fluorescence intensity at 2.5 uM after 24 hrs in presence of H2O2 by Fluo-3/AM staining based flow cytometric analysis (reference value: 51697).
Test [9] concerns PC-12. Put plainly: Neuroprotection against H2O2-induced oxidative damage in rat PC12 cells assessed as intracellular Ca2+ level by measuring mean fluorescence intensity at 5 uM after 24 hrs in presence of H2O2 by Fluo-3/AM staining based flow cytometric analysis (reference value: 51697).
Test [10] has as its system PC-12. Put plainly: Neuroprotection against H2O2-induced oxidative damage in rat PC12 cells assessed as intracellular Ca2+ level by measuring mean fluorescence intensity at 10 uM after 24 hrs in presence of H2O2 by Fluo-3/AM staining based flow cytometric analysis (reference value: 51697).
Test [11] is described as follows: Neuroprotection against LPS-induced inflammation in […] cells assessed as reduction in ROS production by measuring mean fluorescence intensity at 5 uM after 18 hrs by DCFH-DA staining-based flow cytometric analysis (reference value: 56792).
The nature of test [12]: Neuroprotection against H2O2-induced inflammation in human BV2 cells assessed as reduction in ROS production by measuring mean fluorescence intensity at 2.5 uM after 18 hrs by DCFH-DA staining-based flow cytometric analysis (reference value: 20004).
Test [13] can be described thus: Neuroprotection against H2O2-induced inflammation in […] cells assessed as reduction in ROS production by measuring mean fluorescence intensity at 10 uM after 18 hrs by DCFH-DA staining-based flow cytometric analysis (reference value: 20004).
For test [14], the system named is PC-12. Put plainly: Neuroprotection against H2O2-induced oxidative damage in rat PC12 cells assessed as reduction in ROS production by measuring mean fluorescence intensity at 10 uM preincubated for 4 hrs followed by H2O2 addition measured after 24 hrs by DCFH-DA staining-based flow cytometric analysis (reference value: 82616).
The subject of test [15] is PC-12. Put plainly: Neuroprotection against H2O2-induced oxidative damage in rat PC12 cells assessed as late apoptotic cells at 2.5 uM after 24 hrs in presence of H2O2 by annexin V-FITC/propidium iodide staining based flow cytometric analysis (reference value: 29.8%).
Test [16] has as its system PC-12. Put plainly: Neuroprotection against H2O2-induced oxidative damage in rat PC12 cells assessed as necrotic cells at 2.5 uM after 24 hrs in presence of H2O2 by annexin V-FITC/propidium iodide staining based flow cytometric analysis (reference value: 4.5%).
Test [17] deals with PC-12. Put plainly: Neuroprotection against H2O2-induced oxidative damage in rat PC12 cells assessed as viable cells at 2.5 uM after 24 hrs in presence of H2O2 by annexin V-FITC/propidium iodide staining based flow cytometric analysis (reference value: 63.6%). The following applies: PC-12, 24 h, read-out: Activity.
For test [18], the system named is PC-12. Description: Neuroprotection against H2O2-induced oxidative damage in rat PC12 cells assessed as necrotic cells at 5 uM after 24 hrs in presence of H2O2 by annexin V-FITC/propidium iodide staining based flow cytometric analysis (reference value: 4.5%).
Test [19] relates to PC-12. Description: Neuroprotection against H2O2-induced oxidative damage in rat PC12 cells assessed as late apoptotic cells at 10 uM after 24 hrs in presence of H2O2 by annexin V-FITC/propidium iodide staining based flow cytometric analysis (reference value: 29.8%).
The test system of test [20] is PC-12. Description: Neuroprotection against H2O2-induced oxidative damage in rat PC12 cells assessed as viable cells at 10 uM after 24 hrs in presence of H2O2 by annexin V-FITC/propidium iodide staining based flow cytometric analysis (reference value: 63.6%). Conditions: PC-12, 24 h, read-out: Activity.
In test [21] the test system is PC-12. Put plainly: Neuroprotection against H2O2-induced oxidative damage in rat PC12 cells assessed as mitochondrial membrane potential at 2.5 uM after 24 hrs in presence of H2O2 by Jc-1 staining based flow cytometric analysis (reference value: 16.35 +/- 3.19%).
For test [22], the system named is PC-12. Description: Neuroprotection against H2O2-induced oxidative damage in rat PC12 cells assessed as mitochondrial membrane potential at 10 uM after 24 hrs in presence of H2O2 by Jc-1 staining based flow cytometric analysis (reference value: 16.35 +/- 3.19%).
Test [23] concerns PC-12. Put plainly: Neuroprotection against H2O2-induced oxidative damage in rat PC12 cells assessed as intracellular Ca2+ level by measuring mean fluorescence intensity at 5 uM after 24 hrs in presence of H2O2 by Fluo-3/AM staining based flow cytometric analysis (reference value: 43156).
Test [24] has as its system PC-12. Description: Neuroprotection against H2O2-induced oxidative damage in rat PC12 cells assessed as intracellular Ca2+ level by measuring mean fluorescence intensity at 10 uM after 24 hrs in presence of H2O2 by Fluo-3/AM staining based flow cytometric analysis (reference value: 43156).
The nature of test [25]: Neuroprotection against LPS-induced inflammation in […] cells assessed as reduction in ROS production by measuring mean fluorescence intensity at 2.5 uM after 18 hrs by DCFH-DA staining-based flow cytometric analysis (reference value: 70385).
A short description of test [26]: Neuroprotection against LPS-induced inflammation in […] cells assessed as reduction in ROS production by measuring mean fluorescence intensity at 10 uM after 18 hrs by DCFH-DA staining-based flow cytometric analysis (reference value: 70385).

For the compound `CC(C)=CCc1c(O)cc(/C=C/c2ccc3c(c2)[C@H](c2cc(O)c(CC=C(C)C)c(O)c2)[C@@H](c2ccc(O)cc2)O3)cc1O`, the Activity came to 4.2% in the test on PC-12 [1]; 0.4% in the test with PC-12 [2]; 13.1% with PC-12 [3]; 4% in the test with PC-12 [4]; 10.3% in the test on PC-12 [5]; 0.7% in the test with PC-12 [6]. Also, the Activity in the test with PC-12 [7] turned out to be 0.7%. Moreover, the Flu intensity with PC-12 [8] amounted to 40059; with PC-12 [9], 38796; in the test with PC-12 [10] it was 25664; in [11], 28450; in test [12] it was 14563; in [13] it was 8220.
As for `CC(C)=CCc1c(O)cc(/C=C/c2ccc3c(c2)[C@H](c2cc(O)c4c(c2)OC(C)(C)CC4)[C@@H](c2ccc(O)cc2)O3)cc1O`, the Flu intensity came out at 56274 in the test with PC-12 [14]; 37986 in the test on PC-12 [23]; 35826 in the test with PC-12 [24]; 55345 in [25]; 43811 in [26]. Also, the Activity with PC-12 [15] was 25.1%; in the test on PC-12 [16], 4.8%; in the test on PC-12 [18], 1.8%; in the test on PC-12 [19] it was 4.8%; with PC-12 [21], 42.34%; in the test on PC-12 [22], 83.23%. The viability at 2.5 µM with PC-12 [17] was 68%. Further, in the test on PC-12 [20], the viability at 10 µM was determined as 92.7%.
